Measured values published in patent US7642244B2, “Neuropeptide-2 receptor (Y-2R) agonists and uses thereof” (Hoffmann-La Roche Inc., priority 2005, dated 2010).
Where two headings read alike, the source gives them in different places.

Assays:
hypothalamic slices = hypothalamic slices in vitro; cited from earlier work
Y1R = biological target: T1, Y1R (Homo sapiens, UniProt P25929); experiment: Calcium flux assay (FLIPR), Y1R; assay type: cell-based
T1 sequence (P25929 1-384): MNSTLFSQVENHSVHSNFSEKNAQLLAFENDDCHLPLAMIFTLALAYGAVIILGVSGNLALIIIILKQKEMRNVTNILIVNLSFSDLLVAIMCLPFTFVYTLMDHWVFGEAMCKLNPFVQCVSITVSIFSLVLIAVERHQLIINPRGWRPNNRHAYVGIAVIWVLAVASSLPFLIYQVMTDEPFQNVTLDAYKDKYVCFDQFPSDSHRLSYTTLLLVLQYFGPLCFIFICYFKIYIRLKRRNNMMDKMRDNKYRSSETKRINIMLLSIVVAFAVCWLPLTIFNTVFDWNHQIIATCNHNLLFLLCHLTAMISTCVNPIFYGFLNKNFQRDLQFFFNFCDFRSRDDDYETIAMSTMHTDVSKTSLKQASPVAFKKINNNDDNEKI
Protocol: (§1) During the incubation, test compounds were prepared at 3.5× the desired concentration in HBSS (20 mM HEPES)/0.05% BSA/1% DMSO and transferred to a 384-well plate for use on FLIPR® (FILPR, Fluorescent Imaging Plate Reader, is a registered trademark of Molecular Devices Corp.).
(§2) After incubation, both the cell and compound plates were brought to the FLIPR® and 20 μL of the diluted compounds were transferred to the cell plates by the FLIPR®. During the assay, fluorescence readings were taken simultaneously from all 384 wells of the cell plate every 1.5 seconds. Five readings were taken to establish a stable baseline, and then 20 μl of sample was rapidly (30 μl/sec) and simultaneously added to each well of the cell plate. The fluorescence was continuously monitored before, during and after sample addition for a total elapsed time of 100 seconds. Responses (increase in peak fluorescence) in each well following addition was determined. The initial fluorescence reading from each well, prior to ligand stimulation, was used as a zero baseline value for the data from that well. The responses were expressed as a percentage of maximal response of the positive control.

Y4R = Y4R (Homo sapiens, UniProt P50391); experiment: Calcium flux assay (FLIPR), Y4R; assay type: cell-based
Chain of Y4R (P50391 whole entry): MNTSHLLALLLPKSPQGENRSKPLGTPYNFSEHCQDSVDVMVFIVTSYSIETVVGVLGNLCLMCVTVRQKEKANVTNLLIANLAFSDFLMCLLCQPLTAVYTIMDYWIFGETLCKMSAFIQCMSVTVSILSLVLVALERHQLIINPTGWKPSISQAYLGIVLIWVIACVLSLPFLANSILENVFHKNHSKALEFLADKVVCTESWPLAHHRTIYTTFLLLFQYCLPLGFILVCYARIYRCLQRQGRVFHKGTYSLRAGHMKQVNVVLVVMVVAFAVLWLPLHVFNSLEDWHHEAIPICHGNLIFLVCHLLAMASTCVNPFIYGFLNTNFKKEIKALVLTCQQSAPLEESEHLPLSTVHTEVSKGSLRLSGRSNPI
Protocol: as §1, §2

Y5R = biological target: T2, Y5R (Homo sapiens, UniProt Q15761); experiment: Calcium flux assay (FLIPR), Y5R; assay type: cell-based
T2 sequence (Q15761 1-445): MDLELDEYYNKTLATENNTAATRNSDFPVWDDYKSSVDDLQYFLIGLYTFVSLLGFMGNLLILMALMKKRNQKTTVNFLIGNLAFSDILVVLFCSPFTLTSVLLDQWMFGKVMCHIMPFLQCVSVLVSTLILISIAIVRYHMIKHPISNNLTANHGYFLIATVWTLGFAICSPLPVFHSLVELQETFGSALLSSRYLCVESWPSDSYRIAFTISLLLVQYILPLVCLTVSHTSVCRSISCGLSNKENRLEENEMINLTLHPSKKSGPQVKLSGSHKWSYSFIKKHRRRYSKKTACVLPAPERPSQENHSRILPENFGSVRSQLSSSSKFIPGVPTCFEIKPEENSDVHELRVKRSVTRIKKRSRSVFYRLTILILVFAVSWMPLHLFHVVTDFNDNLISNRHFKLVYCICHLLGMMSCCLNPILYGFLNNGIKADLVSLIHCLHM
Protocol: as §1, §2

male DIO rats = conditions: 5 and 10 mg/kg, q48 hr, s.c., 3-week treatment, male DIO rats (FIG. 23)
Protocol: Male Sprague Dawley rats (7 weeks old) were obtained from Charles River Laboratories (USA) and housed in a temperature and humidity controlled environment with a 12 h light:12 h dark cycle. The rats were given ad libitum access to a high fat chow diet (HFD; 60% of dietary kcal as fat, Research Diets D12492) and water throughout the study. Following 7 weeks on the HFD, rats were sorted by body weight and caged singly.
All data shown are the mean ± standard error (s.e.m.). Statistical evaluation of the data was carried out using one-way ANOVA, followed by Dunnett's test to determine where statistically significant differences existed between vehicle and drug treated groups. Differences were considered statistically significant at P<005. Data analysis was carried out with GraphPad software (GraphPad Prism).

female db/db mice [1] = conditions: acute, 1 and 10 mg/kg, s.c., 28 hr prior to OGTT, female db/db mice (FIG. 24)
Protocol: Female db/db mice (C57BL/KsJ-Lep^db/db, Jackson Laboratories, USA) were at 6 weeks of age when received. The mice were housed in a temperature and humidity controlled environment with a 12 h light: 12 h dark cycle, and given access to food (Purina rodent chow 5008) and water ad libitum. The mice (12-weeks old) were pre-bled 4 days prior to study, and those within a narrow range of fasted blood glucose levels were selected for the study in order to minimize variability between vehicle control and drug-treated groups. […] Blood samples were collected from tail clips following a 6 hr fast for determination of baseline values (t=0 min). The mice were then gavaged with an oral bolus of glucose (1 g/kg), and additional blood samples were collected at regular intervals (t=30, 60 and 120 min) for glucose measurement. […] The area under the curve (AUC0-120 min) was determined using the trapezoid method.
All data shown are the mean ± standard deviation (s.d.). Statistical evaluation of the data was carried out using one-way ANOVA, followed by Dunnett's test to determine where statistically significant differences existed between vehicle and drug treated groups. […] Data analysis was carried out with GraphPad software (GraphPad Prism).

female db/db mice [2] = conditions: q48 hr, s.c.
Protocol: Female db/db mice (C57BL/KsJ-Lep^db/db, Jackson Laboratories, USA) were at 6 weeks of age when received. The mice were housed in a temperature and humidity controlled environment with a 12 h light: 12 h dark cycle, and given access to food (Purina rodent chow 5008) and water ad libitum. The mice (9 week old) were pre-bled 4 days prior to drug treatment, and those within a narrow range of fasted blood glucose levels were selected for the study in order to minimize variability between vehicle control and drug-treated groups. […] Basal fasting (2 to 6 hr) blood glucose measurements were conducted weekly. On study day 20, an oral glucose tolerance test was performed following a 6 hr fast. Blood samples were collected from tail clips for determination of baseline values (t=0 min). The mice were then gavaged with an oral bolus of glucose (1 g/kg), and additional blood samples were collected at regular intervals (t=30, 60, and 120 min) for glucose measurement. […] The area under the curve (AUC0-120 min) was determined using the trapezoid method.
All data shown are the mean ± standard deviation (s.d.). Statistical evaluation of the data was carried out using one-way ANOVA, followed by Dunnett's test to determine where statistically significant differences existed between vehicle and drug treated groups. Differences were considered statistically significant at P<0.05. […]

N=C(N)NCCC[C@H](NC(=O)CC1(CC(=O)N2CCN(C3c4ccccc4NC(=O)c4ccccc43)CC2)CCCC1)C(=O)NCCn1c(=O)n(-c2ccccc2)n(-c2ccccc2)c1=O (stereo partly shown) [BIIE0246]
NPY release (hypothalamic slices): increases NPY release

CC[C@H](C)[C@H](N)C(=O)N[C@@H](CCCCN)C(=O)N1CCN(c2ccc3ncn(CC(=O)N[C@@H](CCCNC(=N)N)C(=O)N[C@@H](Cc4c[nH]cn4)C(=O)N[C@@H](Cc4ccc(O)cc4)C(=O)N[C@@H](CC(C)C)C(=O)N[C@@H](CC(N)=O)C(=O)N[C@@H](Cc4c[nH]c5ccccc45)C(=O)N[C@H](C(=O)N[C@H](C(=O)N[C@@H](CCCNC(=N)N)C(=O)N[C@@H](CCC(N)=O)C(=O)N(C)[C@@H](CCCNC(=N)N)C(=O)N[C@@H](Cc4ccc(O)cc4)C(N)=O)[C@@H](C)O)C(C)C)c(=O)c3c2)CC1 [Example 25]
EC50 (Y1R): 0.298 µM | EC50 (Y4R): > 5 µM | EC50 (Y5R): > 5 µM

CCCC[C@H](NC(=O)[C@@H](N)[C@@H](C)CC)C(=O)N1CCN(c2ccc3ncn(CC(=O)N[C@@H](CCCNC(=N)N)C(=O)N[C@@H](Cc4c[nH]cn4)C(=O)N[C@@H](Cc4ccc(O)cc4)C(=O)N[C@@H](CC(C)C)C(=O)N[C@@H](CC(N)=O)C(=O)N[C@@H](Cc4c[nH]c5ccccc45)C(=O)N[C@H](C(=O)N[C@H](C(=O)N[C@@H](CCCNC(=N)N)C(=O)N[C@@H](CCC(N)=O)C(=O)N(C)[C@@H](CCCNC(=N)N)C(=O)N[C@@H](Cc4ccc(O)cc4)C(N)=O)[C@@H](C)O)C(C)C)c(=O)c3c2)CC1 [Example 26]
EC50 (Y1R): > 5 µM | EC50 (Y4R): > 5 µM | EC50 (Y5R): > 5 µM

CC[C@H](C)[C@H](NC(C)=O)C(=O)N[C@@H](CCCCN)C(=O)N1CCN(c2ccc3ncn(CC(=O)N[C@@H](CCCNC(=N)N)C(=O)N[C@@H](Cc4c[nH]cn4)C(=O)N[C@@H](Cc4ccc(O)cc4)C(=O)N[C@@H](CC(C)C)C(=O)N[C@@H](CC(N)=O)C(=O)N[C@@H](Cc4c[nH]c5ccccc45)C(=O)N[C@H](C(=O)N[C@H](C(=O)N[C@@H](CCCNC(=N)N)C(=O)N[C@@H](CCC(N)=O)C(=O)N(C)[C@@H](CCCNC(=N)N)C(=O)N[C@@H](Cc4c(F)cc(O)cc4F)C(N)=O)[C@@H](C)O)C(C)C)c(=O)c3c2)CC1 [Example 27]
EC50 (Y1R): > 5 µM | EC50 (Y4R): > 5 µM

CCCCC(=O)N[C@H](C(=O)N[C@@H](CCCCN)C(=O)N1CCN(c2ccc3ncn(CC(=O)N[C@@H](CCCNC(=N)N)C(=O)N[C@@H](Cc4c[nH]cn4)C(=O)N[C@@H](Cc4ccc(O)cc4)C(=O)N[C@@H](CC(C)C)C(=O)N[C@@H](CC(N)=O)C(=O)N[C@@H](Cc4c[nH]c5ccccc45)C(=O)N[C@H](C(=O)N[C@H](C(=O)N[C@@H](CCCNC(=N)N)C(=O)N[C@@H](CCC(N)=O)C(=O)N(C)[C@@H](CCCNC(=N)N)C(=O)N[C@@H](Cc4ccc(O)cc4)C(N)=O)[C@@H](C)O)C(C)C)c(=O)c3c2)CC1)[C@@H](C)CC [Example 29]
EC50 (Y1R): > 5 µM | EC50 (Y4R): > 5 µM | EC50 (Y5R): > 5 µM

CC[C@H](C)[C@H](NC(=O)C(C)(C)C)C(=O)N[C@@H](CCCCN)C(=O)N1CCN(c2ccc3ncn(CC(=O)N[C@@H](CCCNC(=N)N)C(=O)N[C@@H](Cc4c[nH]cn4)C(=O)N[C@@H](Cc4ccc(O)cc4)C(=O)N[C@@H](CC(C)C)C(=O)N[C@@H](CC(N)=O)C(=O)N[C@@H](Cc4c[nH]c5ccccc45)C(=O)N[C@H](C(=O)N[C@H](C(=O)N[C@@H](CCCNC(=N)N)C(=O)N[C@@H](CCC(N)=O)C(=O)N(C)[C@@H](CCCNC(=N)N)C(=O)N[C@@H](Cc4ccc(O)cc4)C(N)=O)[C@@H](C)O)C(C)C)c(=O)c3c2)CC1 [Example 30]
EC50 (Y1R): > 5 µM | EC50 (Y4R): > 5 µM | EC50 (Y5R): > 5 µM

CC[C@H](C)[C@H](NC(=O)CC1CCCCC1)C(=O)N[C@@H](CCCCN)C(=O)N1CCN(c2ccc3ncn(CC(=O)N[C@@H](CCCNC(=N)N)C(=O)N[C@@H](Cc4c[nH]cn4)C(=O)N[C@@H](Cc4ccc(O)cc4)C(=O)N[C@@H](CC(C)C)C(=O)N[C@@H](CC(N)=O)C(=O)N[C@@H](Cc4c[nH]c5ccccc45)C(=O)N[C@H](C(=O)N[C@H](C(=O)N[C@@H](CCCNC(=N)N)C(=O)N[C@@H](CCC(N)=O)C(=O)N(C)[C@@H](CCCNC(=N)N)C(=O)N[C@@H](Cc4ccc(O)cc4)C(N)=O)[C@@H](C)O)C(C)C)c(=O)c3c2)CC1 [Example 31]
EC50 (Y1R): > 5 µM | EC50 (Y4R): > 5 µM | EC50 (Y5R): > 5 µM

CC[C@H](C)[C@H](NC(=O)c1ccccc1)C(=O)N[C@@H](CCCCN)C(=O)N1CCN(c2ccc3ncn(CC(=O)N[C@@H](CCCNC(=N)N)C(=O)N[C@@H](Cc4c[nH]cn4)C(=O)N[C@@H](Cc4ccc(O)cc4)C(=O)N[C@@H](CC(C)C)C(=O)N[C@@H](CC(N)=O)C(=O)N[C@@H](Cc4c[nH]c5ccccc45)C(=O)N[C@H](C(=O)N[C@H](C(=O)N[C@@H](CCCNC(=N)N)C(=O)N[C@@H](CCC(N)=O)C(=O)N(C)[C@@H](CCCNC(=N)N)C(=O)N[C@@H](Cc4ccc(O)cc4)C(N)=O)[C@@H](C)O)C(C)C)c(=O)c3c2)CC1 [Example 32]
EC50 (Y1R): > 5 µM | EC50 (Y4R): > 5 µM | EC50 (Y5R): > 5 µM

Ile((PEG-30,000)CH2CH2NHCOCH2CH2CO)(ε)Lys-Pqa-Arg-His-Tyr-Leu-Asn-Trp-Val-Thr-Arg-Gln-(NMe)Arg-Tyr-NH2 [Example 41]
body weight gain versus vehicle-treated animals (male DIO rats): significant decrease in body weight gain | glucose excursion in response to an oral glucose challenge (female db/db mice [1]): significantly decreased glucose excursion | basal blood glucose levels versus vehicle-treated animals (female db/db mice [2]; 1, 3 and 10 mg/kg, day 8, 15 and 21, female db/db mice (FIG. 25A)): reduced basal blood glucose levels | glucose excursion in response to an oral glucose challenge (female db/db mice [2]; day 20, 3 and 10 mg/kg, female db/db mice (FIG. 25B)): significantly decreased glucose excursion
